From US10555977B2, “Probiotic bacteria for the topical treatment of skin disorders” (DUPONT NUTRITION BIOSCIENCES APS, priority 2011, dated 2020)

Columns and labels:
[1] = tested on: Adult normal human primary keratinocytes (tight junction integrity); assay: Transepithelial electrical resistance (TEER) of differentiated keratinocyte monolayers; type: cell-based; conditions: for % Change in TEER (additional increase): 24 h
Protocol: (§1) Adult normal human primary keratinocytes (Invitrogen, Carlsbad, Calif., USA) were maintained in EpiLife® medium with 60 μM calcium (Invitrogen) supplemented with Human Keratinocyte Growth Supplement (HKGS) (Invitrogen) (basal medium) at 5% CO2 atmosphere. To differentiate the keratinocytes, the P5-P7 cells were plated on ThinCert™ cell culture inserts (Greiner Bio-one, Frickenhausen, Germany) at density of 10^5cells/cm^2. After overnight incubation at 5% CO2 atmosphere the basal medium was aspirated and changed to differentiation medium (DM) consisting of EpiLife® medium with 1.45 mM CaCl2 supplemented with human keratinocyte growth supplement and incubated for 4 days at 5% CO2 atmosphere. DM was changed both at both the apical and basolateral side every day. Test substances were given at fourth day after starting the differentiation.
(§2) Betaine (Danisco) were dissolved in DM, and applied to apical side of differentiated keratinocytes at amounts of 0, 10, 50, 100, 250 and 500 μM. The cells were incubated for 1, 12, and 24 hours at which points TEER was measured as described below. […]
The integrity of the monolayer was verified by measuring TEER before and after each time point using Millicell-ERS system (Millipore, Billerica, Mass., US) (26). The TEER obtained from the monolayer and the insert was subtracted with background TEER obtained from the insert to yield the monolayer resistance and multiplied with the area of the insert to obtain the result as ohm×cm^2. For the experiments with betaine and probiotics the results are expressed as a percentage change in TEER (% Change in TEER) which reflects the change in the resistance in the given time point compared to a control time point, which was the same cell monolayer before applying the test substances.

[2] = tested on: zonula occludens-1 (ZO-1); assay: Real-time quantitative PCR of zonula occludens-1 expression in differentiated keratinocytes; type: cell-based, human; conditions: betaine 10-500 μM, 24 h
Protocol: as §1, with “Test substances were given at fourth day after starting the differentiation.” left out
as §2
(§3) Real-time quantitative PCR of claudin-4 (CLDN4), occludin (OCLN), zonula occludens-1 (ZO-1) was done with TaqMan gene expression assays (Applied biosystems, Foster City, Calif., USA) designed for each specific gene in an amplification reaction of 20 μl according to manufacturer's instructions with 7500 Fast Real-time PCR System (Applied Biosystems). […]

occludin (OCLN) = assay: Real-time quantitative PCR of occludin expression in differentiated keratinocytes; type: cell-based, human; conditions: 24 h, p<0.05
Protocol: as §1, with “Test substances were given at fourth day after starting the differentiation.” left out
as §2, §3

claudin-4 (CLDN4) = assay: Real-time quantitative PCR of claudin-4 expression in differentiated keratinocytes; type: cell-based, human; conditions: betaine 10-500 μM, 24 h
Protocol: as §1, §2
The differentiated keratinocytes were treated with soluble metabolites produced by probiotics, probiotic whole bacterial cells, and bacterial cell lysates from the apical side for 1 h, 8 h and 24 h at which the TEER was measured. […]

C[N+](C)(C)CC(=O)O [betaine, Betaine]
% Change in TEER ([1]; 50 μM and higher concentrations of betaine, after 12 h, p<0.05 to p<0.001): remained increased | % Change in TEER ([1]; 50 μM betaine, after 1 hour, p<0.05): increased | % Change in TEER (additional increase) ([1]; 100 μM betaine, p<0.05, mean±SE): 41.8±2.8% | % Change in TEER (additional increase) ([1]; 500 μM betaine, p<0.01, mean±SE): 47.8±4.2% | % Change in TEER ([1]; lowest amount of betaine (10 μM), apical side): remained at the basal level | Expression of ZO-1 [2]: remained similar to the basal levels | Expression of OCLN (occludin (OCLN); 100 μM betaine): decreased | Expression of OCLN (occludin (OCLN); 250 μM betaine): decreased | Expression of CLDN4 (claudin-4 (CLDN4)): remained similar to the basal levels
